Counter-ions that a name gives are not always drawn.
Legend:
ROCK2 human HIS = molecular target: T1, ROCK2 human HIS (Homo sapiens, UniProt O75116); test: General kinase assay: ROCK2; assay type: biochemical; details: concentration 10 μM; read-out: Inhibitory effect on Target ROCK2 human HIS
T1 construct: His
Protocol: (§1) General Assay Protocol for all Kinases [[[…]]] [[[…]]] Reaction Buffer: Final Assay Concentrations: [[[…]]] Pipetting Sequence: • 1) Add 8 μl 50 μM MBP in Reaction Buffer to each well of Assay Plate • 2) Add 10 μl 500 mM EDTA in H2O to C- wells • 3) Add 8 μl 62.5 μCi/ml Adenosine 5'-[γ-^33P]triphosphate+5 μM ATP in Reaction Buffer to each well • 4) Add 8 μl 5 fold concentrated inhibitor in 5% DMSO in Reaction Buffer to each well except to C- and C+ wells • 5) Add 8 μl 5% DMSO in Reaction Buffer to C- and C+ wells • 6) Add 8 μl 5 fold concentrated kinase in Reaction Buffer to each well • 7) Incubate 1 hr at room temperature • 8) Add 10 μl 50 mM EDTA in H2O to each well except to C- wells • 9) Prepare MAPH plates by adding 200 μl 0.75% H3PO4 to each well • 10) Exhaust 0.75% H3PO4 using Millipore vacuum station • 11) Add 60 μl 0.75% H3PO4 to each well of MAPH Filter Plate • 12) Transfer 30 μl sample per well from Assay Plate to corresponding well of MAPH Filter Plate • 13) Incubate 30 min at room temperature • 14) Wash each well of MAPH Filter Plates 3× with 200 μl 0.75% H3PO4 using Millipore vacuum station • 15) Add 20 μl Szintilation Liquid to each well of MAPH Filter Plate • 16) Seal MAPH Filter Plate • 17) Store MAPH Filter Plate 30 min in darkness • 18) Quantify radioactivity

RSK1 act. HIS = molecular target: T2, RSK1 act. HIS (Homo sapiens, UniProt Q15418); test: General kinase assay: RSK1; assay type: biochemical; details: concentration 10 μM; read-out: Inhibitory effect on Target RSK1 act. HIS
T2 construct: His
Protocol: as §1

CDK2/CycA = CDK2/CycA (Homo sapiens, UniProt P24941); test: General kinase assay: CDK2/CycA; assay type: biochemical; details: concentration 10 μM; read-out: Inhibitory effect on Target CDK2/CycA
Protocol: as §1

SRPK1 GST = molecular target: T3, SRPK1 GST (Homo sapiens, UniProt Q96SB4); test: General kinase assay: SRPK1; assay type: biochemical; details: concentration 10 μM; read-out: Inhibitory effect on Target SRPK1 GST
T3 construct: GST
T3 sequence (Q96SB4 whole entry): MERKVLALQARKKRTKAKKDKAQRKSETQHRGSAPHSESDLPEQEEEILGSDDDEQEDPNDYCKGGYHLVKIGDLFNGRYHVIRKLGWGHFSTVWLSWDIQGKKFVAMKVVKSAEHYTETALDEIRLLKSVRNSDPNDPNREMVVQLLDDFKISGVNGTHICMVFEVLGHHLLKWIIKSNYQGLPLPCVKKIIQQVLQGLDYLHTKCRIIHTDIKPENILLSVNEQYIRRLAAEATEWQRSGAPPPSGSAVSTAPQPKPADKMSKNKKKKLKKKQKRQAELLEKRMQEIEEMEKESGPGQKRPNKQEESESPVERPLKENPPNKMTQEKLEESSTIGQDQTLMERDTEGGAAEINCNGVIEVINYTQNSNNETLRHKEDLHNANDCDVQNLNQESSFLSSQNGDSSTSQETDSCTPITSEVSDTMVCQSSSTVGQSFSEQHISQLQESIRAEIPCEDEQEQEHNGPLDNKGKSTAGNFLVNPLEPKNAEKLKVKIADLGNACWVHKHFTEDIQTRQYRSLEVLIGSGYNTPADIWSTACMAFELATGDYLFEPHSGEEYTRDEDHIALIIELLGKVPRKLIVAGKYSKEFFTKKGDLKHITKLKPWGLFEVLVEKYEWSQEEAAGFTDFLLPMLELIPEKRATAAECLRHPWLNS
Protocol: as §1

Kit human GST = molecular target: T4, Kit human GST (Homo sapiens, UniProt P10721); test: General kinase assay: Kit; assay type: biochemical; details: concentration 10 μM; read-out: Inhibitory effect on Target Kit human GST
T4 construct: GST
T4 sequence (P10721 26-976): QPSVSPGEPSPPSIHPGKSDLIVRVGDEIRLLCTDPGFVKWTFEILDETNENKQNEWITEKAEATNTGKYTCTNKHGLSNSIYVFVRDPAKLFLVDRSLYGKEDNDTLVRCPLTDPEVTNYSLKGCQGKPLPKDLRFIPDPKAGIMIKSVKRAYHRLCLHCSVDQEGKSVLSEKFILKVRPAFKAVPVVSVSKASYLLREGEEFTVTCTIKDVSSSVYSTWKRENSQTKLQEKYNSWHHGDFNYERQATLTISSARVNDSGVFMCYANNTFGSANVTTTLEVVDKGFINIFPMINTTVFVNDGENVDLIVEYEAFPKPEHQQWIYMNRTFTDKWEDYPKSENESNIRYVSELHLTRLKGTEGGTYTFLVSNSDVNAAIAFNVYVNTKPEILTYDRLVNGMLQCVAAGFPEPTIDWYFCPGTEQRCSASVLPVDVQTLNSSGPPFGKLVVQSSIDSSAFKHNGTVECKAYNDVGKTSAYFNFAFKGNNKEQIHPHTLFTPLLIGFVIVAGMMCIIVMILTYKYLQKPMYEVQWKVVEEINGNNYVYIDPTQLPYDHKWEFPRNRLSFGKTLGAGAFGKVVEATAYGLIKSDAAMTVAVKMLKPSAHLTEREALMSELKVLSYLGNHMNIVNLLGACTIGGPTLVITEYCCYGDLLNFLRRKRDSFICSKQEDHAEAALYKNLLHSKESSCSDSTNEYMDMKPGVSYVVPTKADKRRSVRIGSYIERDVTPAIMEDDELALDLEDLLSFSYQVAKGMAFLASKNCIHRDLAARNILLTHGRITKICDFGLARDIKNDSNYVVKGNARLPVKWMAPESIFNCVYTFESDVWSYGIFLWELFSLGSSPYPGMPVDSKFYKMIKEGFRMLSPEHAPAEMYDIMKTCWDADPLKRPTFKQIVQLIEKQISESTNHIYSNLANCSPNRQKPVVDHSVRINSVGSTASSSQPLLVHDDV
Protocol: as §1

CK1-alpha GST = molecular target: T5, CK1-alpha GST (Homo sapiens, UniProt P48729); test: General kinase assay: CK1-alpha; assay type: biochemical; details: concentration 10 μM; read-out: Inhibitory effect on Target CK1-alpha GST
T5 construct: GST
T5 sequence (P48729 whole entry): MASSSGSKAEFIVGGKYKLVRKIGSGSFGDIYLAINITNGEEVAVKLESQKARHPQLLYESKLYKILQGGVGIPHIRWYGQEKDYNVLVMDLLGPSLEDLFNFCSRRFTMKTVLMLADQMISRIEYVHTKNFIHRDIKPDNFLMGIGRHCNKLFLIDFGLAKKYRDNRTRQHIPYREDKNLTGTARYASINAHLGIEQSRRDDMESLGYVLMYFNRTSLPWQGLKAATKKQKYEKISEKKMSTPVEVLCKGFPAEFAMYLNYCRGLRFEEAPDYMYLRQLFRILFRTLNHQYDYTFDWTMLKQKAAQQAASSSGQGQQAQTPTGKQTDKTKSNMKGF
Protocol: as §1

Jnk1a1 HIS = molecular target: T6, Jnk1a1 HIS (Homo sapiens, UniProt P45983); test: General kinase assay: Jnk1a1; assay type: biochemical; details: concentration 10 μM; read-out: Inhibitory effect on Target Jnk1a1 HIS
T6 construct: His
T6 sequence (P45983 1-384 isoform P45983-2): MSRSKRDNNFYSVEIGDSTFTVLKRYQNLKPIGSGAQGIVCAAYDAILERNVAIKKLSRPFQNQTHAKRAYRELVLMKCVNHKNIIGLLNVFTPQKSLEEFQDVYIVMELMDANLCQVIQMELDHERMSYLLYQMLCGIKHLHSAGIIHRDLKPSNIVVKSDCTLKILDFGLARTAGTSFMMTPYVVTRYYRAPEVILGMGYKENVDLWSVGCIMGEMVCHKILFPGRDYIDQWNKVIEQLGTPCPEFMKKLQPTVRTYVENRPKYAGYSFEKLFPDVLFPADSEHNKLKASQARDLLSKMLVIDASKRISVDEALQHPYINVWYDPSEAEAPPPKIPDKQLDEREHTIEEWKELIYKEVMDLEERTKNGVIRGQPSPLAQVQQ
Protocol: as §1

RICK-STREP 1 = molecular target: T7, RICK-STREP 1 (Homo sapiens, UniProt O43353); test: General kinase assay: RICK; assay type: biochemical; details: concentration 10 μM; read-out: Inhibitory effect on Target RICK-STREP 1
T7 construct: Strep
T7 sequence (O43353 whole entry): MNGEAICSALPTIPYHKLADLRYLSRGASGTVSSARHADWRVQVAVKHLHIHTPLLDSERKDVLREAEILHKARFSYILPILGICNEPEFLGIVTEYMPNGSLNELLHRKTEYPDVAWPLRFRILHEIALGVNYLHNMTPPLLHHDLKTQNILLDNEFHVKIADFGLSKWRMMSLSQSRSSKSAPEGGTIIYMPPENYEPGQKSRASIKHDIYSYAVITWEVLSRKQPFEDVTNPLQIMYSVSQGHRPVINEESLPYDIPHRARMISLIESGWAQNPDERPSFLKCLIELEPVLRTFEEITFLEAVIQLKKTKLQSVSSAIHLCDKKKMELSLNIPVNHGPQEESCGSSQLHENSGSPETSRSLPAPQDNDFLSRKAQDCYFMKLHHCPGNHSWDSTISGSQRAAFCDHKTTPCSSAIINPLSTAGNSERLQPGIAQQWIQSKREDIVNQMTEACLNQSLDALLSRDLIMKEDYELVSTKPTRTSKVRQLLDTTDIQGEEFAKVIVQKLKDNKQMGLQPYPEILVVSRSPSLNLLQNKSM
Protocol: as §1

p70S6K HIS = test: General kinase assay: p70S6K; assay type: biochemical; details: concentration 10 μM
Protocol: as §1

c-Src HIS = molecular target: T8, c-Src HIS (Homo sapiens, UniProt P12931); test: General kinase assay: c-Src; assay type: biochemical; details: concentration 10 μM; read-out: Inhibitory effect on Target c-Src HIS
T8 construct: His
T8 sequence (P12931 whole entry): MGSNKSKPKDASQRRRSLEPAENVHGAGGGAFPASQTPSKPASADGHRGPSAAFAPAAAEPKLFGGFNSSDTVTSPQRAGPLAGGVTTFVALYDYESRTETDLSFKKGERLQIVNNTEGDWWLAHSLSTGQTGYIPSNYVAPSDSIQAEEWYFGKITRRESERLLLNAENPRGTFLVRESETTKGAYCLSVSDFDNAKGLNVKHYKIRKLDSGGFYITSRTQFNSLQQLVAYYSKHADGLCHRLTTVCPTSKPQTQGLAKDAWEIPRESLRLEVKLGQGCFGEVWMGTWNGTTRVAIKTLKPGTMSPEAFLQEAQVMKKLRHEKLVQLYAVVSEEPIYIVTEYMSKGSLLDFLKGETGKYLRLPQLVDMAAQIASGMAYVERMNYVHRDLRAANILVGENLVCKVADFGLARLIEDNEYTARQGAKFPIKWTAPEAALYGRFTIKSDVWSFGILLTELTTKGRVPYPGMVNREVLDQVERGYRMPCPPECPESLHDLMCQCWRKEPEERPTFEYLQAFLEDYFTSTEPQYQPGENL
Protocol: as §1

PDGFRbeta GST = molecular target: T9, PDGFRbeta GST (Homo sapiens, UniProt P09619); test: General kinase assay: PDGFRbeta; assay type: biochemical; details: concentration 10 μM; read-out: Inhibitory effect on Target PDGFRbeta GST
T9 construct: GST
Protocol: as §1

EGFR GST-HIS = molecular target: T10, EGFR GST-HIS (Homo sapiens, UniProt P00533); test: General kinase assay: EGFR; assay type: biochemical; details: concentration 10 μM; read-out: Inhibitory effect on Target EGFR GST-HIS
T10 construct: GST; His
T10 sequence (P00533 25-1210): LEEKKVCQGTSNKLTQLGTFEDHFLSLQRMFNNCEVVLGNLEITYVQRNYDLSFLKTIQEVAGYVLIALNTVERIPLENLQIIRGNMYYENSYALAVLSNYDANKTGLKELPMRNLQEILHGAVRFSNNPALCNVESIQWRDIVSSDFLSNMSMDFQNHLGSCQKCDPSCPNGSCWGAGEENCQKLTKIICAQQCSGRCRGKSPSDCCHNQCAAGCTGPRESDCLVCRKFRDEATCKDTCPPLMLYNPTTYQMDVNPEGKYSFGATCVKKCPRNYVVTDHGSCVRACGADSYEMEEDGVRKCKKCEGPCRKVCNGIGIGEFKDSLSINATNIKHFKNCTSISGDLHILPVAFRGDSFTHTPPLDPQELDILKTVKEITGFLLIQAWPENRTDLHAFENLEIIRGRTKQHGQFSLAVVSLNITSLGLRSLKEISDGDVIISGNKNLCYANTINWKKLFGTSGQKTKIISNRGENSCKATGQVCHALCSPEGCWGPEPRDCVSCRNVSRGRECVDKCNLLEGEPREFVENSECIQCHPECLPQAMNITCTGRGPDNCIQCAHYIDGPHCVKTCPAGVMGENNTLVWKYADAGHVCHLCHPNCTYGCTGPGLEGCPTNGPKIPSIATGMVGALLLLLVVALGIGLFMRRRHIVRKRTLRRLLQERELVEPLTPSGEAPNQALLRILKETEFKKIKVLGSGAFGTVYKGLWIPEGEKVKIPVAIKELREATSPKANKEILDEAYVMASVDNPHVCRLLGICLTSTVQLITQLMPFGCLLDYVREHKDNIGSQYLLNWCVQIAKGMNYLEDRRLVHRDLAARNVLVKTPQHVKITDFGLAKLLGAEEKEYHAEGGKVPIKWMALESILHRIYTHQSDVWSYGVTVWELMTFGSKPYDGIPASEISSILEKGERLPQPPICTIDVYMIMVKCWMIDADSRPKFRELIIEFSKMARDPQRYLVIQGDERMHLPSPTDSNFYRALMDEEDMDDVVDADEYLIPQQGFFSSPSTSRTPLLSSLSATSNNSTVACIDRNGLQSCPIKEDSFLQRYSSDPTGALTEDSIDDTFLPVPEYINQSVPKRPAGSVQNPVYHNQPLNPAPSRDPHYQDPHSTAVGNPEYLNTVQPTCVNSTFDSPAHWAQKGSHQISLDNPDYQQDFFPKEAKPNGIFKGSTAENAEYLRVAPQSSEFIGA
Protocol: as §1

GSK-3beta HIS = molecular target: T11, GSK-3beta HIS (Homo sapiens, UniProt P49841); test: General kinase assay: GSK-3beta; assay type: biochemical; details: concentration 10 μM; read-out: Inhibitory effect on Target GSK-3beta HIS
T11 construct: His
T11 sequence (P49841 whole entry): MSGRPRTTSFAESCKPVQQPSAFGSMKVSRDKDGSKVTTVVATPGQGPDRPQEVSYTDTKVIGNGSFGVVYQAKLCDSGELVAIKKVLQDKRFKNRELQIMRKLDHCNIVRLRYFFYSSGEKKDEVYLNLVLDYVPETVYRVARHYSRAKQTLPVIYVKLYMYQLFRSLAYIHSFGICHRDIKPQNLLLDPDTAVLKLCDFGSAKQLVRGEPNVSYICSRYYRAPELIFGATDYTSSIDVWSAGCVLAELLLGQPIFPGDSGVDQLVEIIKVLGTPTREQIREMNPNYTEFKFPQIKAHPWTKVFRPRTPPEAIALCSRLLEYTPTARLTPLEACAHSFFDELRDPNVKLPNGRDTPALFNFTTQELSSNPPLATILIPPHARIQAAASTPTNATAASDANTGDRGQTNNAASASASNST
Protocol: as §1

cMet GST-HIS = molecular target: T12, cMet GST-HIS (Homo sapiens, UniProt P08581); test: General kinase assay: cMet; assay type: biochemical; details: concentration 10 μM; read-out: Inhibitory effect on Target cMet GST-HIS
T12 construct: GST; His
Protocol: as §1

IKKbeta HIS = molecular target: T13, IKKbeta HIS (Homo sapiens, UniProt O14920); test: General kinase assay: IKKbeta; assay type: biochemical; details: concentration 10 μM; read-out: Inhibitory effect on Target IKKbeta HIS
T13 construct: His
T13 sequence (O14920 1-756): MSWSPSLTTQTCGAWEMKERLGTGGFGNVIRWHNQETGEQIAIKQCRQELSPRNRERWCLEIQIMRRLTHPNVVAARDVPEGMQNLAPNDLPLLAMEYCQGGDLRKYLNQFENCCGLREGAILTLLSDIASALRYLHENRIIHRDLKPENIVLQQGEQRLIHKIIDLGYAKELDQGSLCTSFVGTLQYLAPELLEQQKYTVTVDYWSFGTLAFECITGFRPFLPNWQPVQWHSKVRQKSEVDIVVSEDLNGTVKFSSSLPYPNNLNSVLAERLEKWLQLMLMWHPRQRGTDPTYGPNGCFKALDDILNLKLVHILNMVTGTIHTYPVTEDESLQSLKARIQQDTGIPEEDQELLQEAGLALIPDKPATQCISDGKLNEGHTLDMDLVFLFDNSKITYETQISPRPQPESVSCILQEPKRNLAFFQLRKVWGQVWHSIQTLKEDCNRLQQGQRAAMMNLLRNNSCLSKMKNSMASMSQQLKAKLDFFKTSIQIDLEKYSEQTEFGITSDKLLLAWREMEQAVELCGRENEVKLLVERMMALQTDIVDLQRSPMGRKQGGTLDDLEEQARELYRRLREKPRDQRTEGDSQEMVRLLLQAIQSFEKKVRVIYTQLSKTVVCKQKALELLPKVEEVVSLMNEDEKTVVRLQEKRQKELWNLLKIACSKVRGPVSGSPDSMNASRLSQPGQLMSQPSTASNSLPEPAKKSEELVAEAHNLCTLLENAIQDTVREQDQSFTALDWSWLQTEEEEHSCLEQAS
Protocol: as §1

AKT1/PKBa act. HIS = molecular target: T14, AKT1/PKBa act. HIS (Homo sapiens, UniProt P31749); test: General kinase assay (MBP, 33P-ATP, filter plate): AKT1/PKBa; assay type: biochemical; details: concentration 10 μM; read-out: Inhibitory effect on Target AKT1/PKBa act. HIS
T14 construct: His
Protocol: as §1

InsR GST = molecular target: T15, InsR GST (Homo sapiens, UniProt P06213); test: General kinase assay: InsR; assay type: biochemical; details: concentration 10 μM; read-out: Inhibitory effect on Target InsR GST
T15 construct: GST
Protocol: as §1

[1] = molecular target: T16, mycobacterial protein kinase G (PknG) (Mycobacterium tuberculosis, UniProt P9WI73); test: biochemical; details: read-out: Inhibition of PknG (IC50, [μM])
T16 construct: GST; made in house; host or cells: E. coli BL21

Compound | melting point | inhibition at 10 µM (CDK2/CycA) [%] | inhibition at 10 µM (SRPK1 GST) [%] | inhibition at 10 µM (CK1-alpha GST) [%] | inhibition at 10 µM (RICK-STREP 1) [%] | inhibition at 10 µM (PDGFRbeta GST) [%] | inhibition at 10 µM (EGFR GST-HIS) [%] | inhibition at 10 µM (GSK-3beta HIS) [%] | other results
NC(=O)c1c(NC(=O)Nc2ccccc2)sc2c1CCC1(C2)OCCO1 (as salt: HCl) [Compound D199, 2-[(Anilinocarbonyl)amino]-4,7-dihydro-5H-spiro[1-benzothiophene-6,2′-[1,3]dioxolane]-3-carboxamide] | 212 to 213 °C |  |  |  |  |  |  |  | 
NC(=O)c1c(NC(=O)Nc2ccccc2)sc2cc(O)ccc12 [Compound A12, 6-Hydroxy-2-(3-phenyl-ureido)-benzo[b]thiophene-3-carboxylic acid amide] |  | > 50 | > 50 | > 50 | > 50 | > 50 | > 50 | > 50 | inhibition at 10 µM (ROCK2 human HIS): > 50%; inhibition at 10 µM (RSK1 act. HIS): > 50%; inhibition at 10 µM (Kit human GST): > 50%; inhibition at 10 µM (Jnk1a1 HIS): > 50%; Inhibitory effect on Target p70S6K HIS (p70S6K HIS): + (+ = >50% inhibition at concentration 10 μM); inhibition at 10 µM (c-Src HIS): > 50%
NC(=O)c1c(NC(=O)C2CC2)sc2c(O)c(Br)ccc12 [Compound A15, 6-Bromo-2-(cyclopropanecarbonyl-amino)-7-hydroxy-benzo[b]thiophene-3-carboxylic acid amide] |  |  | > 50 | > 50 | > 50 | > 50 | > 50 | > 50 | inhibition at 10 µM (cMet GST-HIS): > 50%; inhibition at 10 µM (Jnk1a1 HIS): > 50%; Inhibitory effect on Target p70S6K HIS (p70S6K HIS): + (+ = >50% inhibition at concentration 10 μM)
CC1CC1C(=O)Nc1sc2c(Cl)c(O)ccc2c1C(N)=O (stereo not shown) [Compound A37, 7-Chloro-6-hydroxy-2-[(2-methyl-cyclopropanecarbonyl)-amino]-benzo[b]thiophene-3-carboxylic acid amide] |  | > 50 | > 50 | > 50 | > 50 | > 50 | > 50 | > 50 | inhibition at 10 µM (RSK1 act. HIS): > 50%; inhibition at 10 µM (Kit human GST): > 50%; inhibition at 10 µM (IKKbeta HIS): > 50%; inhibition at 10 µM (Jnk1a1 HIS): > 50%; Inhibitory effect on Target p70S6K HIS (p70S6K HIS): + (+ = >50% inhibition at concentration 10 μM); inhibition at 10 µM (AKT1/PKBa act. HIS): > 50%; inhibition at 10 µM (InsR GST): > 50%
NC(=O)c1c(NC(=O)C2CC2)sc2c(Cl)c(OCCO)c(Cl)cc12 [Compound A49, 5,7-Dichloro-2-(cyclopropanecarbonyl-amino)-6-(2-hydroxyethoxy)-benzo[b]thiophene-3-carboxylic acid amide] | 250 to 254 °C |  |  |  |  |  |  |  | 
CCOC(=O)Nc1sc2c(Cl)c(O)c(Cl)cc2c1C(N)=O [Compound A120, (3-Carbamoyl-5,7-dichloro-6-hydroxy-benzo[b]thiophen-2-yl)-carbamic acid ethyl ester] | 235 to 240 °C |  |  |  |  |  |  |  | 
NC(=O)c1c(NC(=O)C2CC2)sc2c1CCC(Br)(Br)C2=O [Compound D67, 6,6-Dibromo-2-(cyclopropanecarbonyl-amino)-7-oxo-4,5,6,7-tetrahydro-benzo[b]thiophene-3-carboxylic acid amide] |  | > 50 | > 50 | > 50 | > 50 |  | > 50 | > 50 | IC50 [1]: 0.1 to 1 µM; inhibition at 10 µM (cMet GST-HIS): > 50%
NS(=O)(=O)c1c(NC(=O)C2CC2)sc2c1CCCC2 [Compound D86, Cyclopropanecarboxylic acid (3-sulfamoyl-4,5,6,7-tetrahydro-benzo[b]thiophen-2-yl)-amide] | 235 to 238 °C (dec.) |  |  |  |  |  |  |  | 
NN=C1CCc2c(sc(NC(=O)C3CC3)c2C(N)=O)C1 [Compound D115, 2-(Cyclopropanecarbonyl-amino)-6-hydrazono-4,5,6,7-tetrahydro-benzo[b]thiophene-3-carboxylic acid amide] |  | > 50 |  | > 50 | > 50 | > 50 | > 50 | > 50 | IC50 [1]: 0.1 to 1 µM; inhibition at 10 µM (Kit human GST): > 50%
NC(=O)c1c(NC(=O)Nc2ccc(F)cc2)sc2c1CCC(=O)C2 [Compound D121, 2-[3-(4-Fluoro-phenyl)-ureido]-6-oxo-4,5,6,7-tetrahydro-benzo[b]thiophene-3-carboxylic acid amide] |  | > 50 | > 50 | > 50 | > 50 |  | > 50 | > 50 | inhibition at 10 µM (c-Src HIS): > 50%
NC(=O)c1c(NC(=O)Nc2ccc(F)cc2)sc2c1CCC(O)C2 (stereo not shown) [Compound D142, 2-[3-(4-Fluoro-phenyl)-ureido]-6-hydroxy-4,5,6,7-tetrahydro-benzo[b]thiophene-3-carboxylic acid amide] |  | > 50 | > 50 | > 50 | > 50 |  |  |  | inhibition at 10 µM (IKKbeta HIS): > 50%; inhibition at 10 µM (c-Src HIS): > 50%
O=C(Nc1sc2c(c1S(=O)(=O)O)CCCC2)C1CC1 [Compound D216, 2-(Cyclopropanecarbonyl-amino)-4,5,6,7-tetrahydro-benzo[b]thiophene-3-sulfonic acid] | 225 to 230 °C (dec.) |  |  |  |  |  |  |  | 

From patent US20070275962A1, “Heterobicyclic Compounds as Pharmaceutically Active Agents” (GPC BIOTECH AG, priority 2003, published 2007)
